# Target: Plasma kallikrein (Human, UniProt P03952)
# Experiment: Inhibitory Activity Assay
# Description: Example compounds were evaluated for inhibition of the human activated kallikrein enzyme in two formats of an assay employing a fluorogenic peptide substrate. In one assay format, the concentrations of reagents were as follows: 20 mM Tris pH 7.5, 1 mM EDTA, 150 mM sodium chloride, 0.1% PEG-400, 0.1% Triton X-100, 500 pM activated kallikrein enzyme, 300 uM Pro-Phe-Arg-7-amido-4-methylcoumarin substrate. Prior to reaction initiation with substrate, enzyme and inhibitors were preincubated for 30 min at RT. After initiation with substrate, reactions were incubated for 10 min at RT and fluorescence emission at 460 nm from 380 nm excitation measured with a microplate reader. In another assay format, the concentrations of reagents were as follows: 20 mM Tris pH 7.5, 1 mM EDTA, 150 mM sodium chloride, 0.1% PEG-400, 0.1% Triton X-100, 5 pM activated kallikrein enzyme, 300 uM Pro-Phe-Arg-7-amido-4-methylcoumarin substrate. Prior to reaction initiation with substrate, enzyme and inhibitors were preincubated for 30 min at RT. After initiation with substrate, reactions were incubated for 18 h at RT and fluorescence emission at 460 nm from 380 nm excitation measured with a microplate reader.
# Sequence of Plasma kallikrein (P03952 20-390 S143N limits assumed): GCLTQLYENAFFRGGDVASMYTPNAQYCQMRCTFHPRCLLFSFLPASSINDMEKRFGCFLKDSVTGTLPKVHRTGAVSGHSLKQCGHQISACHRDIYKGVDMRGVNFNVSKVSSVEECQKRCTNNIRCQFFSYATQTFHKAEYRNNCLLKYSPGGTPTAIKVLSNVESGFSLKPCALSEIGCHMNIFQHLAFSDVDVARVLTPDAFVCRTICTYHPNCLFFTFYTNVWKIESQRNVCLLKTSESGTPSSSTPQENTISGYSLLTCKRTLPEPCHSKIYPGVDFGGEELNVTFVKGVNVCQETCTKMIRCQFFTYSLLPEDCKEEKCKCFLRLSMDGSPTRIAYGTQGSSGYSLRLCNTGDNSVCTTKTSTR
# Sequence of Plasma kallikrein (P03952 391-638 limits assumed): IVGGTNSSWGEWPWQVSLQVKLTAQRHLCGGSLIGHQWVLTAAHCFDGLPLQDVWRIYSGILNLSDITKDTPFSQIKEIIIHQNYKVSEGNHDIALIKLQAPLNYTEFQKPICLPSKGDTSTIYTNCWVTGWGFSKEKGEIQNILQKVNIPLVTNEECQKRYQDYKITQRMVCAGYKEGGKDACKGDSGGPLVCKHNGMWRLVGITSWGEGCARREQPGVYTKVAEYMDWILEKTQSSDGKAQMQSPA
row,Compound,EC50
1,"O=C(NCc1ncn2ccc(Cl)cc12)c1cnn(Cc2cn3ccc(C4CC4)c(F)c3n2)c1 [US11352356, Compound I-144]",< 1 nM
2,"CC(C)(C)OC(=O)C(C)(C)Oc1cc(C2CC2)cn2cc(Cn3cc(C(=O)NCc4ncn5ccc(Cl)c(F)c45)nn3)nc12 [US11352356, Compound I-212]",< 1 nM
3,"CCOC(COCc1cc(C2CC2)cn2cc(Cn3cc(C(=O)NCc4ncn5ccc(Cl)c(F)c45)nn3)nc12)OCC [US11352356, Compound I-301]",< 1 nM

# Second part, the compound after the results:
row,EC50,Compound
1,< 1 nM,"O=C(NCc1ncn2ccc(Cl)c(F)c12)c1cn(Cc2cn3ccc(C4CC4)cc3n2)nn1 [US11352356, Compound I-148]"
2,< 1 nM,"COC(=O)c1cnn(-c2cc(C3CC3)cn3cc(Cn4cc(C(=O)NCc5ncn6ccc(Cl)c(F)c56)nn4)nc23)c1 [US11352356, Compound I-230]"
3,< 1 nM,"CC(C)(C)[S+]([O-])NCCOCc1cc(C2CC2)cn2cc(Cn3cc(C(=O)NCc4ncn5ccc(Cl)c(F)c45)nn3)nc12 (stereo unspecified) [US11352356, Compound I-302]"

# — BindingDB's records for patent US11352356 (Takeda Pharmaceutical Company Limited, 2022)
